Earlier results on four compounds are cited in US20170172145A1, “COMPOSITIONS COMPRISING AN AMIDE” (The Procter & Gamble Company, priority 2015, published 2017).

Structures are written as SMILES.

In the case of `OCl` [hypochlorous acid], the pKa is on record as 7.0. As for `CCCCCCCCC(=O)O` [nonanoic acid], the pKa is 5.2.

Turning to `O=C(O)/C=C/c1ccc(O)cc1` [p-coumaric acid], the pKa was 4.6. In the case of `CCCCCCC(=O)O` [heptanoic acid], the pKa was 5.1.
